Where two headings read alike, the source gives them in different places.
Legend:
Chimera 1 = Chimera 1 (Homo sapiens, UniProt P36544, M226I/T225V); experiment: [3H]A-585539 radioligand binding, HEK-293 membranes; design: expressed in transfected cells; details: membranes of HEK-293 cells expressing Chimera 1; read-out: Radioligand Binding KD ± SEM
Chimera 2 = Chimera 2 (Homo sapiens, UniProt P36544, M226I/T225V); experiment: [3H]A-585539 radioligand binding, HEK-293 membranes/homogenates; design: expressed in transfected cells
Chain of Chimera 2 (P36544 with tags, fused parts or gaps T225V/M226I): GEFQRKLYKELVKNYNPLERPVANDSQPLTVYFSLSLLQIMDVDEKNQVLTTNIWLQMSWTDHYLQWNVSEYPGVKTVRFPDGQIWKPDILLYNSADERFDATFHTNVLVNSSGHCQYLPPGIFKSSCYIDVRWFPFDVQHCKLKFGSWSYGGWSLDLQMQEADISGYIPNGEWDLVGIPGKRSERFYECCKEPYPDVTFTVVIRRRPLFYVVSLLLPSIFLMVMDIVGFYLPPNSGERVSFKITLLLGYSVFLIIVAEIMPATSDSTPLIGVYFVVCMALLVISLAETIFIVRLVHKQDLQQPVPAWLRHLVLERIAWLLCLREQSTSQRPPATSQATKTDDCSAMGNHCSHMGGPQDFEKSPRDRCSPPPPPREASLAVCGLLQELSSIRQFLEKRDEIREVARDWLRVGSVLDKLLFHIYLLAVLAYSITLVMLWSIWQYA

Chain of Chimera 1 (P36544 with tags, fused parts or gaps T225V/M226I): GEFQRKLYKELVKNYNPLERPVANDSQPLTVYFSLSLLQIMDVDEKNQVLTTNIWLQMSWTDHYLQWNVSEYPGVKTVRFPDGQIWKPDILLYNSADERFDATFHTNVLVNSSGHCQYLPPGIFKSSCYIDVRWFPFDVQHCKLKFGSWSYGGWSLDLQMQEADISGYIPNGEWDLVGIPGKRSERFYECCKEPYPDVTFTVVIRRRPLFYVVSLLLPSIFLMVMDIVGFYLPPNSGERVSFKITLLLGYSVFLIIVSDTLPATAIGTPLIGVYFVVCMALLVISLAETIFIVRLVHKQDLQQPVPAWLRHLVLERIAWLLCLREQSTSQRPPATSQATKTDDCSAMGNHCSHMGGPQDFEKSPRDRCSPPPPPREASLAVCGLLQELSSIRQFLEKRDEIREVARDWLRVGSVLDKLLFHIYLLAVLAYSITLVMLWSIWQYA

`C[N+]1(C)C[C@@H]2C[C@H]1CN2c1ccc(-c2ccccc2)nn1.[I-]` [[^3H]A585539, [^3H]-(S,S)-2,2-dimethyl-5-(6-phenyl-pyridazin-3-yl)-5-aza-2-azonia-bicyclo[2.2.1]heptane iodide] was tested, and the Kd (Chimera 1) was 0.65 nM, the “Bmax, saturation binding” value (Chimera 2; 10 μM genistein, 4 μg/well) was 6058.0±809.3 fmol/mg protein and the Kd (Chimera 2; 10 μM genistein, 4 μg/well, read-out: Kd, saturation binding) was 0.1 ± 0.01 nM. The “Bmax, saturation binding” value (Chimera 2; 10 μM genistein, 20 μg/well) was 7251.0±587.8 fmol/mg protein, the Kd (Chimera 2; 10 μM genistein, 20 μg/well, read-out: Kd, saturation binding) was 0.18 ± 0.01 nM and the “Bmax, representative saturation binding” value (Chimera 2; absence of genistein) was 6014 fmol/mg protein. It also gave a Kd (Chimera 2; absence of genistein, read-out: Kd, representative saturation binding) of 0.15 nM, a Bmax (Chimera 2; homogenates of HEK-293-Chimera 2 cells) of 29167 fmol/mg protein and a Kd (Chimera 2; membranes of HEK-293 cells expressing Chimera 2, read-out: Radioligand Binding KD ± SEM) of 0.17 nM. The “Bmax, representative saturation binding” value (Chimera 2; presence of 10 μM genistein) was 6528 fmol/mg protein, the Kd (Chimera 2; presence of 10 μM genistein, read-out: Kd, representative saturation binding) was 0.17 nM and the “Bmax, saturation binding” value (Chimera 2; without genistein, 4 μg/well) was 5979.0±530.3 fmol/mg protein. For the same molecule, the Kd (Chimera 2; without genistein, 4 μg/well, read-out: Kd, saturation binding) was 0.11 ± 0.01 nM, the “Bmax, saturation binding” value (Chimera 2; without genistein, 20 μg/well) was 7016.0±798.2 fmol/mg protein and the Kd (Chimera 2; without genistein, 20 μg/well, read-out: Kd, saturation binding) was 0.17 ± 0.02 nM.

Reference: patent US8759504B2, “Cholinergic/serotoninergic receptor and uses thereof” (AbbVie Inc., priority 2007, dated 2014)
